Test results published in publication PMC5834442, “Identifying inhibitors of the Leishmania inositol phosphorylceramide synthase with antiprotozoal activity using a yeast-based assay and ultra-high throughput screening platform” (Scientific Reports, 2018).
Like-named read-outs stand apart in the source and are kept apart here.

Tests used:
[1] = test system: L. donovani (MHOM/SD/62/1S-CL2D, LdBOB) axenic amastigotes; test: Leishmania donovani axenic amastigote dose response assay (resazurin); assay type: cell-based; conditions: -logIC50 mol against L. donovani (LdBOB) axenic amastigotes, read-out: pIC50 Axenic (converted)
[2] = test system: HepG2 cells; test: Mammalian cell cytotoxicity assay (CellTiter-Glo); assay type: cell-based, human; conditions: for IC50: Homo sapiens, -logIC50 mol against HepG2, read-out: PIC50 HepG2 (converted)
[3] = selectivity: pIC50 axenic minus pIC50 HepG2
[4] = selectivity, pIC50 axenic minus pIC50 HepG2

SMILES | IC50 [1] | further results
Cc1ccc(S(=O)(=O)Nc2cc(Cl)c(Cl)cc2Cl)cc1 [ST/411835] | 7.08 µM | IC50 [2]: > 100 µM; pSI v HepG2 [2, 3]: 1.15
Cc1ccc(-c2cnc(N)c(-c3nc4ccc(F)cc4[nH]3)c2)cc1 [HL209813-065A1] | 7.59 µM | IC50 [2]: 75.9 µM; pSI v HepG2 [2, 3]: 1.00
O=[N+]([O-])c1ccc(NS(=O)(=O)c2ccccc2)c(-c2ccccc2)c1 [VDPP/14/72/1] | 5.01 µM | IC50 [2]: 35.5 µM; pSI v HepG2 [2, 4]: 0.85
O=C(Nc1ccc(Cl)c(Cl)c1)Nc1ccc(F)c([N+](=O)[O-])c1 [ST/1276812] | 3.55 µM | IC50 [2]: 10 µM; pSI v HepG2 [2, 3]: 0.45
O=C(Nc1cc(-c2nc3ccccc3[nH]2)ccc1Cl)c1ccc(Cl)c([N+](=O)[O-])c1 [ST/1193938] | 8.71 µM | IC50 [2]: 22.9 µM; pSI v HepG2 [2, 3]: 0.42
O=C(Nc1ccccc1Cl)C(=Cc1cccc(F)c1)C(=O)Nc1ccccc1Cl [ST/786453] | 0.204 µM | IC50 [2]: 6.76 µM; pSI v HepG2 [2, 3]: 1.52
COc1ccc(Cl)cc1NC(=O)Nc1cccc(Br)c1 [C2180/12/1] | 4.79 µM | IC50 [2]: 66.1 µM; pSI v HepG2 [2, 3]: 1.14
Cc1ccc(-c2ccnc(-c3ccc(O)cc3)n2)cc1 [SC/128042] | 6.61 µM | IC50 [2]: > 100 µM; pSI v HepG2 [2, 3]: 1.18
C=CCSc1nsc(NC(=O)Nc2ccc(Cl)cc2C(F)(F)F)n1 [ST/566960] | 0.501 µM | IC50 [2]: 23.4 µM; pSI v HepG2 [2, 3]: 1.67
Cc1nc(-c2ccccc2)c(-c2ccnc(Nc3cc(S(N)(=O)=O)ccc3C)n2)s1 [N6896-93-B1] | 1.55 µM | IC50 [2]: > 100 µM; pSI v HepG2 [2, 3]: 1.81
O=S(=O)(Nc1cccc(F)c1CN1CCC(F)(F)C1)c1ccc(Cl)c(Cl)c1 [DS105792-004A6B1] | 9.12 µM | IC50 [2]: 47.9 µM; pSI v HepG2 [2, 3]: 0.72
O=C(c1cccc(F)c1)c1coc2ccc(Br)cc2c1=O [ST/472875] | 2.29 µM | IC50 [2]: 63.1 µM; pSI v HepG2 [2, 3]: 1.44
Cc1cc([N+](=O)[O-])ccc1NC(=O)Nc1cccc(F)c1 [SC/109683] | 3.8 µM | pSI v HepG2 [2]: 0.54; IC50 [2]: 13.2 µM
N#Cc1ccccc1Cn1cc(C(=O)c2ccccc2)c2ccccc21 [ST/1274537] | 3.55 µM | pSI v HepG2 [2]: 1.45; IC50 [2]: > 100 µM
Cc1ccccc1C(=O)N(Cc1cccnc1)c1nc2c(F)cccc2s1 [ST/1131244] | 8.13 µM | IC50 [2]: 52.5 µM; pSI v HepG2 [2, 3]: 0.81
OCc1ccn2nc(-c3ccc(F)cc3)c(-c3ccncc3)c2c1 [U11871/14/3] | 1.91 µM | IC50 [2]: > 100 µM; pSI v HepG2 [2, 4]: 1.72
Clc1ccc(Cn2nnc(-c3ccc(CN4CCOCC4)cc3)n2)cc1 [ST/852088] | 3.24 µM | IC50 [2]: > 100 µM; pSI v HepG2 [2, 4]: 1.49
COc1ccccc1-c1nc(-c2ccc(O)c(C(N)=O)c2)cs1 [ST/1261284] | 33.1 µM | –
O[C@@]1(c2ccc(F)cc2)CCCC[C@@H]1n1cncn1 [ST/2183803] | > 50 µM | –
CCn1cc(C(=O)O)c(=O)c2cc(F)ccc21 [ST/1766829] | 24.5 µM | –
Cc1ccc(O)c(NC(=O)c2cccc(Br)c2)c1 [ST/867278] | 21.9 µM | –

SMILES | IC50 [1] | further results
O=C(Nc1ccon1)c1cc2c(s1)CCCCCC2 [ST/1100321] | 19.5 µM | –
COc1ccc(Cl)cc1NC(=O)Nc1cccc(F)c1 [SC/109667] | 11.5 µM | –
Brc1ccc(OCc2nc3ccccc3[nH]2)cc1 [ST/839801] | 49 µM | –
O=c1nc(SCc2ccccc2F)c2c([nH]1)CCCC2 [ST/915519] | > 50 µM | –
CN(C)CCNc1ccc2ncc(-c3ccc4ccccc4c3)n2n1 [ST/668081] | > 50 µM | –
Cc1ccc2cc(C(=O)Nc3ccc(C)c(N)c3)sc2c1 [ST/551412] | 20.4 µM | –
O=S(=O)(Nc1cccc(Cl)c1Cl)c1cccs1 [ST/906545] | 21.4 µM | –
CNS(=O)(=O)c1ccc(NC(=O)c2csc(C)c2-c2ccccc2)cc1 [ST/937316] | 38.9 µM | –
CCc1ccccc1NC(=O)c1cc(-c2ccc(Cl)cc2)oc1C [ST/1545686] | > 50 µM | –
O=S(=O)(Nc1ccccc1Br)c1ccc(Cl)c(C(F)(F)F)c1 [ST/630987] | 19.1 µM | –
COc1ccc(S(=O)(=O)Nc2cc(Cl)ccc2C)c(C)c1C [ST/724177] | 19.1 µM | –
OC(CCC1CCCCC1)(Cn1ccnc1)c1ccc(F)cc1F (centres unmarked) [JJP/1777/3] | 14.1 µM | –
O=C1CC(c2ccccc2)N(c2ccc(Cl)cc2)N1 (centres unmarked) [0014C 75***] | 26.9 µM | –
Cc1cccc(C(=O)Nc2nc(-c3cccs3)ns2)c1 [ST/1197585] | 30.9 µM | –
CCOc1cc2c(cc1S(=O)(=O)c1ccc(COc3ccc(F)cc3)cc1)CCN(C)CC2 [AL101938-139A1] | 31.6 µM | –
Cc1ccc2[nH]c(COc3ccc(Cl)cc3)nc2c1 [ST/743143] | 29.5 µM | –
CC(C(O)(Cn1cncn1)c1ccc(F)cc1F)S(C)(=O)=O (centres unmarked) [JCH/31/2] | > 50 µM | –
Cc1cnc(NS(=O)(=O)c2ccc(-c3ccc(F)cc3)s2)c(Br)c1 [DJ107456-057A22] | 28.2 µM | –
O=C(NC1CCN(S(=O)(=O)c2ccc(O[C@@H]3CCNC3)cc2)CC1)c1ccc(Cl)c(Cl)c1 [AS45234-005A4B2C1D4] | > 50 µM | –
C=CCNc1nc(N)c([N+](=O)[O-])c(Nc2cccc(F)c2)n1 [ST/892571] | > 50 µM | –
Cc1ncccc1Oc1ncc(Cl)cc1S(=O)(=O)Nc1cc(Cl)ccc1F [AV207107-102A1] | 12.6 µM | –

SMILES | IC50 [1] | further results
CCn1ncc2c(N[C@H]3CCCC[C@H]3C(=O)O)c(C(=O)NCc3ccccc3)cnc21 [R10565/35/4] | > 50 µM | –
CCc1ccccc1Oc1cncc(-c2nc3ccccc3[nH]2)n1 [ST/1138848] | > 50 µM | –
O=C(Nc1ccc(OC(F)(F)F)cc1)c1ccc(Br)s1 [ST/631944] | 13.2 µM | –
O=C(O)c1cccc2c1C(=O)N(Cc1ccccc1F)C2 [ST/689197] | > 50 µM | –
OC(Cn1cncn1)(c1ccc(F)cc1F)C1CCCS1 (centres unmarked) [JJP/1818/3] | > 50 µM | –
O=C(NCc1ccccc1)c1sccc1NS(=O)(=O)c1ccccc1 [RF44798-098A22] | 21.4 µM | –
O=C(Nc1ccc(F)c(Cl)c1)c1cc(-c2ccc(O)cc2)on1 [ST/1440432] | 10.5 µM | –
Cc1cc(C(=O)N(C2=NC(C)CS2)c2ccc(Cl)cc2)no1 (centres unmarked) [ST/807832] | > 50 µM | –
CCc1ccc2c(c1)c(=O)c(C(=O)O)cn2CC(F)(F)F [ST/2184718] | 36.3 µM | –
Cn1c(=O)c(Oc2ccc(Cl)cc2)c(O)c2ccccc21 [ST/832324] | > 50 µM | –
Cc1cc(-c2nc3cc(Cl)ccc3o2)ccc1N [ST/880430] | 26.9 µM | –
CCOc1ccc(C(C)C)cc1S(=O)(=O)n1ccnc1 [ST/1289929] | 10.5 µM | –
CC1CSC(N(C(=O)Cc2cccs2)c2ccc(Cl)cc2)=N1 (centres unmarked) [ST/815117] | 33.9 µM | –
Cc1cc(O)c(Cl)c(C)c1NS(=O)(=O)c1ccc(Br)cc1 [ST/835722] | 26.9 µM | –
Cc1cccc(Nc2cccc3c(=O)[nH][nH]c(=O)c23)c1C [78/118] | > 50 µM | –
O=C(NNC(=O)c1c(O)c2ccccc2[nH]c1=O)c1ccc(Cl)cc1Cl [SC/110880] | > 50 µM | –
Cc1cccn2c(=O)c(C(=O)NCc3ccncc3)c(O)nc12 [ST/1129403] | > 50 µM | –
CCOc1ccc2[nH]c(=O)c(CN(Cc3cccnc3)C(=O)Nc3ccc(F)cc3)cc2c1 [ST/696972] | > 50 µM | –
Cc1ccc(Nc2nc(C(N)=O)c(NC(=O)C3CCC3)s2)cc1 [ST/1548033] | > 50 µM | –
